Data taken from patent publication US20050221381A1, “Method for isolating ligands” (priority 2002, published 2005).
Read-outs that look alike come from different tables or passages of the source.

Assays:
[1] = molecular target: T1, soluble DRB1*0401 molecules (DR4) (Homo sapiens, UniProt P01903+P01911, A100K/A169T/F76Y/I96L/K127E/L162R/M171V/N62H/P40V/Q125Y/R42H/S133A/S149N/S66Y/V115G/V209L/W38E); type: binding; parameters: key to DR4 binding: +++: high binding affinity; ++: moderate binding affinity; +: low binding affinity; −: no binding; key to Binding to DRB1 *0401: −: no binding/T cell response; +/−: weak binding/T cell response; +: intermediate binding/T cell response; ++: strong binding/T cell response
T1 construct: Soluble HLA class I A*0201 and HLA class II DRA1*0101/DRB1*0101/Ii, DRA1*0101/DRB1*0401/Ii and DRA1*0101/DRB1*0404/Ii molecules were expressed in SC-2 cells; made in house; host or cells: SC-2 cells

[2] = system: PBMC from CMV seropositive donors; type: cell-based, human; conditions: for Frequency in screen (number of refinding/number of donors' expressing the respective HLA type): literature known class I epitopes
[3] = molecular target: T1, soluble DRB1*0401 molecules (DR4); type: binding; parameters: key: +++: high binding affinity; ++: moderate binding affinity; +: low binding affinity; −: no binding; conditions: individual pp65 15mer, SDS-stability assay
[4] = system: HLA-DRB1*0401-transgenic mice splenocytes; type: in vivo, mouse; parameters: key to DRB1*0401 mice total SC (T cell response) / DRB1*0401 mice CD4+ (T cell response): −: no binding/T cell response; +/−: weak binding/T cell response; +: intermediate binding/T cell response; ++: strong binding/T cell response
[5] = direct binding of individual peptides, SDS-stability assay, compared with YAR and HA306-318
[6] = IFN-gamma ELISpot, enriched CD4+ fraction of splenocytes of HLA-DR4 transgenic mice vaccinated with the longer peptide, ex vivo re-stimulation
[7] = IFN-gamma ELISpot, total splenocytes of HLA-DR4 transgenic mice vaccinated with the longer peptide, ex vivo re-stimulation

## AETPGCVAYIGISFLDQ [Peptide 1239]
[1]; [5]
  DR4 binding: −

## ARNLVPMVATVQGQN [Peptide 493]
[2]; donor 10736, single peptides, secondary screen (FIG. 9)
  Reactivity, induction of IFN-gamma secretion: inducers of IFN-gamma secretion

## ATKMQVIGDQYVKVY [Peptide 213]
[2]
  Induction of IFN-gamma secretion in T cells / PBMC from CMV seropositive donors: can induce functional, IFN-gamma secreting T cells in humans

## EFFWDANDIYRIFAE [Peptide 512]
[3]
  Binding to DRB1*0401: −

## EYRHTWDRHDEGAAQ [Peptide 380]
[1]; soluble DRB1*0401 molecules
  Binding to DRB1 *0401: −
[4]; [6]
  DRB1*0401 mice CD4+ (T cell response): −
[4]; [7]
  DRB1*0401 mice total SC (T cell response): −
[3]
  Binding to DRB1*0401: −

## GDDDVWTSGSDSDEE [Peptide 395]
[2]
  Recognition by T cells in HLA context other than described: recognized by T cells in a different HLA context than known before

## GQNLKYQEFFWDAND [Peptide 505]
[1]; soluble DRB1*0401 molecules
  Binding to DRB1 *0401: −
[4]; [6]
  DRB1*0401 mice CD4+ (T cell response): −
[4]; [7]
  DRB1*0401 mice total SC (T cell response): +

## GVSTANATVYMIDSVL [Peptide 1237]
[1]; [5]
  DR4 binding: ++

## HDEGAAQGDDDVWTS [Peptide 388]
[3]
  Binding to DRB1*0401: −

## HNPAVFTWPPWQAGI [Peptide 477]
[2]
  Induction of IFN-gamma secretion in T cells / PBMC from CMV seropositive donors: can induce functional, IFN-gamma secreting T cells in humans

## IDELKTNSSLLTSILTYHVV [Peptide 1235]
[1]; [5]
  DR4 binding: −

## IHNPAVFTWPPWQAG [Peptide 476]
[2]
  Induction of IFN-gamma secretion in T cells / PBMC from CMV seropositive donors: can induce functional, IFN-gamma secreting T cells in humans

## KTPRVTGGGANAGAS [Peptide 416]
[2]
  Recognition by T cells in HLA context other than described: recognized by T cells in a different HLA context than known before

## KYQEFFWDANDIYRI [Peptide 509]
[1]
  Binding to DRB1 *0401: −
[4]; mouse, in vivo
  DRB1*0401 mice CD4+ (T cell response): ++
[4]; mouse, in vivo, sc
  DRB1*0401 mice total SC (T cell response): ++

## LEYRHTWDRHDEGAA [Peptide 379]
[3]
  Binding to DRB1*0401: −

## LKAESTVAPEEDTDE [Peptide 456]
[4]; [6]
  DRB1*0401 mice CD4+ (T cell response): −
[4]; [7]
  DRB1*0401 mice total SC (T cell response): −

## LLQRGPQYSEHPTFT [Peptide 356]
[4]; [6]
  DRB1*0401 mice CD4+ (T cell response): +/−
[4]; [7]
  DRB1*0401 mice total SC (T cell response): +/−

## LQRGPQYSEHPTFTS [Peptide 357]
[4]; mouse, in vivo
  DRB1*0401 mice CD4+ (T cell response): +/−
[4]; mouse, in vivo, sc
  DRB1*0401 mice total SC (T cell response): +

## MQVIGDQYVKVYLES [Peptide 216]
[2]
  Induction of IFN-gamma secretion in T cells / PBMC from CMV seropositive donors: can induce functional, IFN-gamma secreting T cells in humans

## NFAGIEAAASAIQGNV [Peptide 1238]
[1]; [5]
  DR4 binding: −

## NFLLPDAQSIQAAAAG [Peptide 1241]
[1]; [5]
  DR4 binding: ++

## NLVPMVATV [reference compound]
[2]; HLA A2 donors
  Number of donors recognizing the epitope: 9 out of 10
[2]
  Frequency in screen (number of refinding/number of donors' expressing the respective HLA type): 8/9

## PAVFTWPPWQAGILA [Peptide 479]
[2]
  Induction of IFN-gamma secretion in T cells / PBMC from CMV seropositive donors: can induce functional, IFN-gamma secreting T cells in humans

## PFMRPHERNGFTVLC [Peptide 262]
[2]
  Recognition by T cells in HLA context other than described: recognized by T cells in a different HLA context than known before

## PTFTSQYRIQGKLEY [Peptide 367]
[3]
  Binding to DRB1*0401: −

## QGDDDVWTSGSDSDE [Peptide 394]
[2]
  Recognition by T cells in HLA context other than described: recognized by T cells in a different HLA context than known before

## QGQNLKYQEFFWDAN [Peptide 504]
[1]; soluble DRB1*0401 molecules
  Binding to DRB1 *0401: −
[4]; [6]
  DRB1*0401 mice CD4+ (T cell response): −
[4]; [7]
  DRB1*0401 mice total SC (T cell response): −

## QNLKYQEFFWDANDI [Peptide 506]
[2]
  Induction of IFN-gamma secretion in T cells / PBMC from CMV seropositive donors: can induce functional, IFN-gamma secreting T cells in humans
[1]; soluble DRB1*0401 molecules
  Binding to DRB1 *0401: −
[4]; [6]
  DRB1*0401 mice CD4+ (T cell response): +/−
[4]; [7]
  DRB1*0401 mice total SC (T cell response): ++

## QNQWKEPDVYYTSAF [Peptide 172]
[3]
  Binding to DRB1*0401: −

## QRGPQYSEHPTFTSQ [Peptide 358]
[4]; mouse, in vivo
  DRB1*0401 mice CD4+ (T cell response): +/−
[4]; mouse, in vivo, sc
  DRB1*0401 mice total SC (T cell response): ++

## QYSEHPTFTSQYRIQ [Peptide 362]
[4]; mouse, in vivo
  DRB1*0401 mice CD4+ (T cell response): ++
[4]; mouse, in vivo, sc
  DRB1*0401 mice total SC (T cell response): +

## RHTWDRHDEGAAQGD [Peptide 382]
[1]; soluble DRB1*0401 molecules
  Binding to DRB1 *0401: −
[4]; [6]
  DRB1*0401 mice CD4+ (T cell response): −
[4]; [7]
  DRB1*0401 mice total SC (T cell response): −
[3]
  Binding to DRB1*0401: −

## RIFAELEGV
[2]
  Frequency in screen (number of refinding/number of donors' expressing the respective HLA type): 1/9

## RKTPRVTGGGAMAGA [Peptide 415]
[2]
  Recognition by T cells in HLA context other than described: recognized by T cells in a different HLA context than known before

## RLKAESTVAPEEDTD [Peptide 455]
[1]; soluble DRB1*0401 molecules
  Binding to DRB1 *0401: +
[4]; [6]
  DRB1*0401 mice CD4+ (T cell response): +/−
[4]; [7]
  DRB1*0401 mice total SC (T cell response): +/−
[3]
  Binding to DRB1*0401: −

## RQQNQWKEPDVYYTS [Peptide 170]
[3]
  Binding to DRB1*0401: −

## SGVMTRGRLKAESTV [Peptide 448]
[1]; soluble DRB1*0401 molecules
  Binding to DRB1 *0401: −
[4]; [6]
  DRB1*0401 mice CD4+ (T cell response): −
[4]; [7]
  DRB1*0401 mice total SC (T cell response): +/−
[3]
  Binding to DRB1*0401: −

## SLILVSQYTPDSTPC [Peptide 54]
[1]; soluble DRB1*0401 molecules
  Binding to DRB1 *0401: −
[4]; [6]
  DRB1*0401 mice CD4+ (T cell response): +/−
[4]; [7]
  DRB1*0401 mice total SC (T cell response): −
[3]
  Binding to DRB1*0401: −

## STPCHRGDNQLQVQH [Peptide 65]
[1]; soluble DRB1*0401 molecules
  Binding to DRB1 *0401: −
[4]; [6]
  DRB1*0401 mice CD4+ (T cell response): −
[4]; [7]
  DRB1*0401 mice total SC (T cell response): −
[3]
  Binding to DRB1*0401: −

## TGSGAGIAQAAAGTV [Peptide 1236]
[1]; [5]
  DR4 binding: +

## TKMQVIGDQYVKVYL [Peptide 214]
[2]
  Induction of IFN-gamma secretion in T cells / PBMC from CMV seropositive donors: can induce functional, IFN-gamma secreting T cells in humans

## TPRVTGGGAMAGAST [Peptide 417]
[2]
  Recognition by T cells in HLA context other than described: recognized by T cells in a different HLA context than known before

## TRATKMQVIGDQYVK [Peptide 211]
[2]
  Induction of IFN-gamma secretion in T cells / PBMC from CMV seropositive donors: can induce functional, IFN-gamma secreting T cells in humans

## VQGQNLKYQEFFWDA [Peptide 503]
[2]
  Induction of IFN-gamma secretion in T cells / PBMC from CMV seropositive donors: can induce functional, IFN-gamma secreting T cells in humans

## VSDLKSSTAVIPGYPV [Peptide 1240]
[1]; [5]
  DR4 binding: +

## VTTERKTPRVTGGGA [Peptide 411]
[2]
  Recognition by T cells in HLA context other than described: recognized by T cells in a different HLA context than known before

## WDRHDEGAAQGDDDV [Peptide 385]
[1]; soluble DRB1*0401 molecules
  Binding to DRB1 *0401: −
[4]; [6]
  DRB1*0401 mice CD4+ (T cell response): −
[4]; [7]
  DRB1*0401 mice total SC (T cell response): −
[3]
  Binding to DRB1*0401: −

## YPKYVKQNTLKLAT [HA306-318, reference compound]
[1]
  DR4 binding: ++

## YQEFFWDANDIYRIF [Peptide 510]
[1]; soluble DRB1*0401 molecules
  Binding to DRB1 *0401: −
[4]; [6]
  DRB1*0401 mice CD4+ (T cell response): ++
[4]; [7]
  DRB1*0401 mice total SC (T cell response): ++
[3]
  Binding to DRB1*0401: −

## YRHTWDRHDEGAAQG [Peptide 381]
[1]; soluble DRB1*0401 molecules
  Binding to DRB1 *0401: −
[4]; [6]
  DRB1*0401 mice CD4+ (T cell response): −
[4]; [7]
  DRB1*0401 mice total SC (T cell response): −

## YSEHPTFTSQYRIQG [Peptide 363]
[4]; mouse, in vivo
  DRB1*0401 mice CD4+ (T cell response): ++
[4]; mouse, in vivo, sc
  DRB1*0401 mice total SC (T cell response): +

## YTSAFVFPTKDVALR [Peptide 182]
[4]; [6]
  DRB1*0401 mice CD4+ (T cell response): +/−
[4]; [7]
  DRB1*0401 mice total SC (T cell response): +/−

## YYTSAFVFPTKDVAL [Peptide 181]
[1]; soluble DRB1*0401 molecules
  Binding to DRB1 *0401: −
[4]; [6]
  DRB1*0401 mice CD4+ (T cell response): +/−
[4]; [7]
  DRB1*0401 mice total SC (T cell response): +
